Patent US20100003301A1, “Bone Defect Filler, Release-Controlled Carrier, And Their Production Methods” (The University of Tokyo, priority 2006, published 2010)

Experiment: Viscosity measurement of blocking agents (LVDV digital viscometer)
Type: physicochemical
Conditions: viscosity could not be measured
Method: A Z printer 406 made by Z corporation was used to produce a bone filling material. “LVDV” which is a digital viscometer made by Brookfield Co., Ltd. was used to measure viscosity. A UL (ultra low viscosity) adapter was used when the viscosity was measured. Bending strength was measured by a rheometer made by Sun Science Co., Ltd.
Viscosity of blocking agents were measured by “LVDV” which is a digital viscometer made by Brookfield Co., Ltd. The results are shown in Table 2.

dissolution in water: cannot be dissolved in water
Structure (SMILES): NC(=O)CC[C@H](N)C(=O)O [L-glutamine]
